According to patent US20240358692A1, “TREATMENT OF SCLERODERMA” (Aisa Pharma, Inc., priority 2023, published 2024):

How the values were obtained:
participants with SSc-RP [1] = experiment: SHAQ - Visual Analog Scale - Overall Disease Severity; type: in vivo, human; conditions: tadalafil 5 mg
From the text: (§1) The standard, validated, patient reported outcome measures tool for SSc patients, the Scleroderma Health Assessment Questionnaire (SHAQ), will be used to assess the participant qualify of life. Details are attached in the Appendix. The participant quality of life will be scored, and a disability index calculated for each questionnaire completed by the patient at Screening and each in-clinic visit. The absolute change in participant quality of life from baseline to the end of each dosing period will be calculated similar to frequency data as before.
(§2) The standard, validated, patient reported outcome measures tool for SSc patients, the SHAQ, was collected at the time points specified in the study schedules (FIG. 2 and FIGS. 4A and 4B) to assess the participant's quality of life. The SHAQ included a Raynaud's VAS that will also be reported separately.

participants with SSc-RP [2] = experiment: SHAQ - Visual Analog Scale - Pain; type: in vivo, human
From the text: as §1, §2
Pain on the SHAQ outcome measure on the first line in table F is a composite of all pain experienced in patients with SSc, comprising joint pain, back pain, headache, odynophagia, skin ulcer related discomfort, Raynaud's, and neuropathic pain. Aisa Pharma believes, based on the biologic attributes and actions of cilnidipine that differ from most dihydropyridine calcium channel antagonists that cilnidipine might have direct analgesic effects in certain pain conditions and in fact has been designated to receive evaluation through the […] Preclinical Pain Screening Platform Program to investigate the drug in multiple in vitro and in vivo preclinical models of pain that are validated and predictive of effects in man.

[3] = Modified ITT Population-Part A, Day 12, dose cilnidipine 10 mg, tadalafil 5 mg, alone or combined as labelled
[4] = Tadalafil 5 mg, SSc patients, PP, Part A

Structure (SMILES): CN1CC(=O)N2[C@H](c3ccc4c(c3)OCO4)c3[nH]c4ccccc4c3C[C@@H]2C1=O [Tadalafil]
- VAS Overall Severity Change from Baseline Max (participants with SSc-RP [1]): 2.40
- VAS Overall Severity Change from Baseline Median (participants with SSc-RP [1]): 0.700
- VAS Overall Severity Change from Baseline Min (participants with SSc-RP [1]): −1.30
- VAS Overall Severity Change from Baseline Q1 (participants with SSc-RP [1]): −0.600
- VAS Overall Severity Change from Baseline Q3 (participants with SSc-RP [1]): 1.850
- VAS Overall Severity Day 12 Max (participants with SSc-RP [1]): 9.10
- VAS Overall Severity Day 12 Mean (participants with SSc-RP [1]): 5.600
- VAS Overall Severity Day 12 Min (participants with SSc-RP [1]): 0.20
- VAS Overall Severity Day 12 Q1 (participants with SSc-RP [1]): 2.200
- VAS Overall Severity Day 12 Q3 (participants with SSc-RP [1]): 9.000
- VAS Overall Severity Percent Change from Baseline Max (participants with SSc-RP [1]): 100.0%
- VAS Overall Severity Percent Change from Baseline Min (participants with SSc-RP [1]): −23.6%
- VAS Overall Severity Percent Change from Baseline Q1 (participants with SSc-RP [1]): −3.48%
- VAS Overall Severity Percent Change from Baseline Q3 (participants with SSc-RP [1]): 68.46%
- Visual Analog Scale-Pain, Change from Baseline, Mean (participants with SSc-RP [2]; [3]): 1.000
- Visual Analog Scale-Pain, Change from Baseline, Median (participants with SSc-RP [2]; [3]): 0.800
- Visual Analog Scale-Pain, In Clinic Visit (Day 12), Mean (participants with SSc-RP [2]; Modified ITT Population-Part A, dose cilnidipine 10 mg, tadalafil 5 mg, alone or combined as labelled): 5.300
- SHAQ VAS Pain, Change from Baseline, Max (participants with SSc-RP [2]; [4]): 1.50
- SHAQ VAS Pain, Change from Baseline, Mean (participants with SSc-RP [2]; [4]): 1.000
- SHAQ VAS Pain, Change from Baseline, Median (participants with SSc-RP [2]; [4]): 0.800
- SHAQ VAS Pain, Change from Baseline, Min (participants with SSc-RP [2]; [4]): 0.70,
- SHAQ VAS Pain, Change from Baseline, Q1 (participants with SSc-RP [2]; [4]): 0.700,
- SHAQ VAS Pain, Change from Baseline, Q3 (participants with SSc-RP [2]; [4]): 1.500
- SHAQ VAS Pain, Day 12, Max (participants with SSc-RP [2]; [4]): 9.20
- SHAQ VAS Pain, Day 12, Mean (participants with SSc-RP [2]; [4]): 5.300
- SHAQ VAS Pain, Day 12, Median (participants with SSc-RP [2]; [4]): 5.850
- SHAQ VAS Pain, Day 12, Min (participants with SSc-RP [2]; [4]): 0.30,
- SHAQ VAS Pain, Day 12, Q1 (participants with SSc-RP [2]; [4]): 1.900,
- SHAQ VAS Pain, Day 12, Q3 (participants with SSc-RP [2]; [4]): 8.700
- SHAQ VAS Pain, Percent Change from Baseline, Max (participants with SSc-RP [2]; [4]): 75.0
- SHAQ VAS Pain, Percent Change from Baseline, Mean (participants with SSc-RP [2]; [4]): 31.35
- SHAQ VAS Pain, Percent Change from Baseline, Median (participants with SSc-RP [2]; [4]): 10.81
- SHAQ VAS Pain, Percent Change from Baseline, Min (participants with SSc-RP [2]; [4]): 8.2,
- SHAQ VAS Pain, Percent Change from Baseline, Q1 (participants with SSc-RP [2]; [4]): 8.24,
- SHAQ VAS Pain, Percent Change from Baseline, Q3 (participants with SSc-RP [2]; [4]): 75.00
